In patent publication US5990179A, “Composition and method of enhancing electrotransport agent delivery” (ALZA Corporation, priority 1995, dated 1999):

Key:
[1] = transdermal flux of lidocaine and epinephrine from gel formulations 14 and 15 (Example 3); details: formulation 14 (pH 3.68) vs 15 (pH 6.42); samples at 10, 30, 60 and 90 minutes
Experimental: The formulation 14 and 15 gels were subjected to transdermal flux experiments using heat stripped chest and breast skin from human cadavers using the electrotransport permeation cell described in Example 2 and FIG. 3. Measurements were taken from the receptor compartment of the cell at 10 minutes, 30 minutes, 60 minutes, and 90 minutes after start of application of electrotransport current.

[2] = pH of lidocaine donor solutions of varying base:salt ratio (Example 1); type: physicochemical
Experimental: Two identical experiments were conducted at pHs 4.95 and 7.35, one at pH 6.85, and three at pH 6.25.

| SMILES | transdermal flux, formulation 14 versus 15 [1] | pH ([2]; 0 mmoles lidocaine base, 199 mmoles lidocaine HCl) | pH ([2]; 2.1 mmoles lidocaine base, 195 mmoles lidocaine HCl) | pH ([2]; 6.0 mmoles lidocaine base, 191 mmoles lidocaine HCl) | pH ([2]; 20.3 mmoles lidocaine base, 179 mmoles lidocaine HCl) |
| --- | --- | --- | --- | --- | --- |
| CNC[C@H](O)c1ccc(O)c(O)c1 [epinephrine] | did not have a significant statistical difference between formulation 14 and 15 |  |  |  |  |
| CCN(CC)CC(=O)Nc1c(C)cccc1C [lidocaine] |  | 4.95 | 6.25 | 6.85 | 7.35 |
